Laboratory results as given in patent publication US9723838B2, “Pyrazolyl amide compounds and uses thereof” (SHENYANG SINOCHEM AGROCHEMICALS R&D CO., LTD., priority 2013, dated 2017).
Where two headings read alike, the source gives them in different places.

How the values were obtained:
[1] = tested on: diamondback moth; test: Test against diamondback moth (leaf disc spraying); format: in vivo; conditions: for mortality at 10 ppm / mortality at 100 ppm / mortality at 0.156 ppm / mortality at 0.313 ppm / mortality at 0.63 ppm: Plutella xylostella, foliar; for mortality at 10 ppm / mortality at 100 ppm: read-out: mortality against diamondback moth; for Mortality (%): parallel test
Excerpt: The test method is spraying. The leaves of cabbage grown in greenhouse were chosen, removed the surface waxy layer and perforated to get 3 cm diameter leaf discs by the hole puncher. The test compounds were sprayed on both sides of the discs by Airbrush according to the designed concentration from low to high dose. The cabbage discs were placed in 6 cm diameter Petri dish with filter paper. Tentest insects (3 instar) were introduced on each treatment after drying. Each treatment set the pure water as CK. The treated discs were placed in a certain condition. After 72 h, the number of surviving insects was investigated and the mortality rates were calculated.

[2] = tested on: army worm; test: Test against army worm (corn leaf spraying); format: in vivo; conditions: for Mortality (%): parallel test
Experimental: The test method is spraying. The middle part of fresh corn leaves were chosen and cut into 3 cm sects. The test compounds were sprayed on both sides of the sects by Airbrush according to the designed concentration from low to high dose. The sects were placed in 6 cm diameter Petri dish with filter paper. Ten test insects (3 instar) were introduced on each treatment after drying. Each treatment set the pure water as CK. The treated sects were placed in a certain condition. After 72 h, the number of surviving insects was investigated and the mortality rates were calculated.

[3] = tested on: green peach aphid; test: Test against green peach aphid (spraying); format: in vivo; conditions: for mortality at 600 ppm / mortality at 2.5 ppm / mortality at 5 ppm / mortality at 10 ppm / mortality at 100 ppm: Myzus persicae; for mortality at 600 ppm / mortality at 100 ppm: read-out: mortality against green peach aphid; for Mortality (%): parallel test
Experimental: According to the solubility of test compounds, the compounds are dissolved in acetone or dimethyl sulfoxide, and then diluted with 0.1% aqueous solution of Tween 80 to form the test liquid 50 ml, the content of acetone or dimethyl sulfoxide in the total solution is not more than 10%.
The 6 cm diameter Petri dish with a layer of filter paper was chosen, a moderate amount of water was added to preserve moisture. A suitable piece of cabbage leaf with 30-50 green peach aphids was excised from a culture plant. Remove the winged and positive aphids, the leaf was placed to the Petri dish above with back upward. The test compounds were sprayed on both sides of the leaf by Airbrush (spray pressure: 10 psi, equate to 0.7 kg/cm^2; spray volume: 0.5 mL; spray distance: 15-20 cm). The treated Petri dishes were placed in a chamber of 23-25° C., 40%-60% relative humidity, L/D 13 h: 11 h. To keep the leaf fresh, a moderate amount of water was added to the Petri dish during the observation. After 48 h, the number of surviving insects was investigated and the mortality rates were calculated.

[4] = tested on: black bean aphid; test: Test of absorption activity (horsebean seedling, solution poured into cup); format: in vivo; conditions: Aphis fabae, after 48 h; for mortality at 0.625 µg/mL: 0.625 mg/L; for mortality at 2.5 µg/mL: 2.5 mg/L; for mortality at 10 µg/mL: 10 mg/L
Experimental: The 3 cm horsebean seedling that pre-infested by a certain number of black bean aphids (2 days instar) was chosen and transplanted to a paper cup loaded with fine sand. According to the test, the test compounds were treated to a solution and poured into the cup. After 48 h, the number of surviving insects was investigated and the mortality rates were calculated.

[5] = tested on: diamond back moth; conditions: disclosed in CN1653051A; cited from earlier work
[6] = tested on: armyworm; conditions: disclosed in CN1653051A; cited from earlier work
[7] = tested on: apple tree aphids; test: Field test against apple tree aphids; format: in vivo; conditions: for mortality at 25 µg/mL: dose 25 mg/L; for mortality at 50 µg/mL: dose 50 mg/L
Experimental: The test was carried out in the institute of pomology of CAAS orchard in June 2014, using starkrimson as the test sample, the apple tree aphids were in preliminary stage. The test method is spraying using the stretcher power sprayer (ZL-22-160), each treatment repeated 4 times. The number of initial aphids was investigated before spraying. After 2 days, 7 days, 14 days, the number of surviving aphids was investigated respectively and the control efficiency were calculated. 10% Cyantraniliprole SC was commercial available which was bought from DuPont Agricultural Chemicals Ltd., Shanghai.

[8] = tested on: cabbage aphids; test: Field test against cabbage aphids; format: in vivo
Experimental: The test was carried out in the institute of Vegetables and Flowers Chinese Academy of Agriculture Sciences Nankou base, using cabbages (JINGFENG) as the test plant. The test compounds dosage were 15 g a.i./hm^2 and 10% Cyantraniliprole SC dosage was 30 g a.i./hm^2 which were sprayed evenly to the whole plant using backpack manual sprayer (“MATABI” SUPER GREEN 16) at the spray volume of 750 L/hm^2. Each treatment repeated 4 times, arranged with randomized blocks. 5 spots were chosen from each area using diagonal method, each spot contains 2 cabbages, the 10 cabbages above were investigated in the area. The number of initial cabbage aphids was investigated before spraying. After 1 day, 3 days, 7 days, 14 days, the number of surviving aphids was investigated respectively and the control efficiency were calculated. decline ratio of insect (%)=(insect number before pesticide application−insect number after pesticide application)/(insect number before pesticide application)×100% control efficiency (%)=(treatment area decline ratio of insect−CK area decline ratio of insect)/(100−CK area decline ratio of insect)×100% Calculation Method:
10% Cyantraniliprole SC was bought from DuPont Agricultural Chemicals Ltd., Shanghai.

[9] = 10 ppm, spraying, after 72 h, read-out: mortality against army worm
[10] = 100 ppm, spraying, after 72 h, read-out: mortality against army worm
[11] = 72 h, read-out: mortality against army worm

SMILES | mortality at 10 ppm ([1]; 10 ppm, spraying, after 72 h) [%] | mortality at 100 ppm ([1]; 100 ppm, spraying, after 72 h) [%] | mortality at 10 ppm [2, 9] [%] | mortality at 100 ppm [2, 10] [%] | mortality at 600 ppm ([3]; 600 ppm, spraying, after 48 h) [%] | mortality at 0.625 µg/mL [4] [%] | mortality at 2.5 µg/mL [4] [%] | mortality at 10 µg/mL [4] [%] | mortality at 0.156 ppm ([1]; 72 h) [%] | mortality at 0.313 ppm ([1]; 72 h) [%] | mortality at 0.63 ppm ([1]; 72 h) [%] | mortality at 2.5 ppm ([2]; 72 h) [%] | mortality at 5 ppm ([2]; 72 h) [%] | mortality at 10 ppm ([2]; 72 h) [%] | mortality at 2.5 ppm ([3]; 48 h) [%] | mortality at 5 ppm ([3]; 48 h) [%] | mortality at 10 ppm ([3]; 48 h) [%] | mortality at 10 ppm ([1]; 72 h) [%] | mortality at 100 ppm ([1]; 72 h) [%] | mortality at 100 ppm [2, 11] [%] | also measured
CC1(C)N=C(c2cc(Cl)cc(Cl)c2NC(=O)c2cc(Br)nn2-c2ncccc2Cl)NC1=O [Compound 1.21] | ≥ 80 | ≥ 80 | ≥ 80 | ≥ 80 | ≥ 80 |  |  |  |  |  |  |  |  |  |  |  |  |  |  |  | 
CNC(=O)c1cc(C#N)cc(C)c1NC(=O)c1cc(Br)nn1-c1ncccc1Cl [Cyantraniliprole, reference compound] |  |  |  |  |  | 30 | 54.6 | 100 |  |  |  |  |  |  |  |  |  |  |  |  | 
CC(NC(=O)c1cc(F)cc(Cl)c1NC(=O)c1cc(Br)nn1-c1ncccc1Cl)C(N)=O (stereo not shown) [KC2, reference compound] |  |  |  |  |  |  |  |  | 30 | 45.8 | 63.2 | 0 | 16.7 | 61.6 | 0 | 57.6 | 70.4 |  |  |  | insecticidal activity against diamond back moth [5]: high activity; insecticidal activity against armyworm [6]: high activity
CC(C)(NC(=O)c1cc(Cl)cc(Cl)c1NC(=O)c1cc(Cl)nn1-c1ncccc1Cl)C(N)=O [Compound 1.3] |  |  |  |  |  | 100 | 100 | 100 | 87.5 | 100 | 100 | 64.3 | 81.2 | 100 | 100 | 100 | 100 | ≥ 80 | ≥ 80 | ≥ 80 | mortality at 10 ppm [2, 11]: ≥ 80%; mortality at 100 ppm ([3]; 48 h): ≥ 80%; mortality at 600 ppm ([3]; 48 h): ≥ 80%; mortality at 25 µg/mL ([7]; 48 h, 2 day): 78.9%; mortality at 50 µg/mL ([7]; 48 h, 2 day): 83.5%; mortality at 25 µg/mL ([7]; 168 h, 7 day): 93.5%; mortality at 50 µg/mL ([7]; 168 h, 7 day): 96.1%; mortality at 25 µg/mL ([7]; 336 h, 14 day): 93.1%; mortality at 50 µg/mL ([7]; 336 h, 14 day): 96.7%; Mortality (%) ([8]; dose 15 g a.i./hm^2, 1 d): 80.78 c %; Mortality (%) ([8]; dose 15 g a.i./hm^2, 3 d): 87.22 b %; Mortality (%) ([8]; dose 15 g a.i./hm^2, 7 d): 92.57 ab %; Mortality (%) ([8]; dose 15 g a.i./hm^2, 14 d): 91.77 ab %
CC1(C)N=C(c2cc(Cl)cc(Cl)c2NC(=O)c2cc(Cl)nn2-c2ncccc2Cl)NC1=O [Compound 1.20] | ≥ 80 | ≥ 80 | ≥ 80 | ≥ 80 | ≥ 80 |  |  |  |  |  |  |  |  |  |  |  |  |  |  |  | mortality at 100 ppm ([3]; 100 ppm, spraying, after 48 h): ≥ 80%
CC1(C)N=C(c2cc(Br)cc(Br)c2NC(=O)c2cc(Br)nn2-c2ncccc2Cl)NC1=O [Compound 1.27] | ≥ 80 | ≥ 80 | ≥ 80 | ≥ 80 | ≥ 80 |  |  |  |  |  |  |  |  |  |  |  |  |  |  |  | mortality at 100 ppm ([3]; 100 ppm, spraying, after 48 h): ≥ 80%
CC(C)(NC(=O)c1cc(F)cc(Cl)c1NC(=O)c1cc(Br)nn1-c1ncccc1Cl)C(N)=O [Compound 1.8] |  |  |  |  |  |  |  |  |  |  |  |  |  |  |  |  |  |  |  |  | Mortality (%) ([1]; 0.156 ppm, after 72 h): 52.1%; Mortality (%) ([1]; 0.313 ppm, after 72 h): 75%; Mortality (%) ([1]; 0.63 ppm, after 72 h): 100%; Mortality (%) ([2]; 2.5 ppm, after 72 h): 43.7%; Mortality (%) ([2]; 5 ppm, after 72 h): 50.0%; Mortality (%) ([2]; 10 ppm, after 72 h): 100%; Mortality (%) ([3]; 2.5 ppm, after 48 h): 89.3%; Mortality (%) ([3]; 5 ppm, after 48 h): 100.0%; Mortality (%) ([3]; 10 ppm, after 48 h): 100.0%
CC(NC(=O)c1cc(Br)cc(Br)c1NC(=O)c1cc(Br)nn1-c1ncccc1Cl)C(N)=O (stereo not shown) [KC1, reference compound] |  |  |  |  |  |  |  |  | 0 | 20 | 33.3 | 0 | 0 | 18 | 0 | 0 | 15.1 |  |  |  | insecticidal activity against diamond back moth [5]: high activity; insecticidal activity against armyworm [6]: high activity
CC(C)(NC(=O)c1cc(Cl)cc(Cl)c1NC(=O)c1cc(Br)nn1-c1ncccc1Cl)C(N)=O [Compound 1.4] |  |  |  |  |  | 100 | 100 | 100 | 100 | 100 | 100 | 50 | 86.6 | 92.8 | 90.1 | 100 | 100 | ≥ 80 | ≥ 80 | ≥ 80 | mortality at 10 ppm [2, 11]: ≥ 80%; mortality at 100 ppm ([3]; 48 h): ≥ 80%; mortality at 600 ppm ([3]; 48 h): ≥ 80%; Mortality (%) ([8]; dose 15 g a.i./hm^2, 1 d): 84.40 abc %; Mortality (%) ([8]; dose 15 g a.i./hm^2, 3 d): 91.03 ab %; Mortality (%) ([8]; dose 15 g a.i./hm^2, 7 d): 95.58 ab %; Mortality (%) ([8]; dose 15 g a.i./hm^2, 14 d): 91.79 ab %
CC(C)(NC(=O)c1cc(Br)cc(Br)c1NC(=O)c1cc(Br)nn1-c1ncccc1Cl)C(N)=O [Compound 1.10] |  |  |  |  |  |  |  |  | 62.5 | 81.3 | 100 | 62.5 | 87.5 | 100 | 100 | 100 | 100 | ≥ 80 | ≥ 80 | ≥ 80 | mortality at 100 ppm ([3]; 48 h): ≥ 80%; mortality at 600 ppm ([3]; 48 h): ≥ 80%
